Experimental data taken from PubChem BioAssay AID1259407 (Chemical Carcinogenesis Research Information System (CCRIS), 2018).
Calls of active or inactive are those of the source. How the calls were made is not given here.

Test system: CCRIS mutagenicity, Ames/micronucleus/aberration tests
Experiment: CCRIS mutagenicity studies
[1] = Test System: AMES SALMONELLA TYPHIMURIUM, Strain/Indicator: TA98, Metabolic Activation: NONE, Method: STANDARD PLATE
[2] = Test System: AMES SALMONELLA TYPHIMURIUM, Strain/Indicator: TA98, Metabolic Activation: RAT, LIVER, S-9, AROCLOR 1254, Method: STANDARD PLATE
[3] = Test System: AMES SALMONELLA TYPHIMURIUM, Strain/Indicator: TA100, Metabolic Activation: NONE, Method: STANDARD PLATE
[4] = Test System: AMES SALMONELLA TYPHIMURIUM, Strain/Indicator: TA100, Metabolic Activation: RAT, LIVER, S-9, AROCLOR 1254, Method: STANDARD PLATE
[5] = Test System: AMES SALMONELLA TYPHIMURIUM, Strain/Indicator: TA1535, Metabolic Activation: NONE, Method: STANDARD PLATE
[6] = Test System: AMES SALMONELLA TYPHIMURIUM, Strain/Indicator: TA1535, Metabolic Activation: RAT, LIVER, S-9, AROCLOR 1254, Method: STANDARD PLATE
[7] = Test System: AMES SALMONELLA TYPHIMURIUM, Strain/Indicator: TA1538, Metabolic Activation: NONE, Method: STANDARD PLATE
[8] = Test System: AMES SALMONELLA TYPHIMURIUM, Strain/Indicator: TA1538, Metabolic Activation: RAT, LIVER, S-9, AROCLOR 1254, Method: STANDARD PLATE
[9] = Test System: AMES SALMONELLA TYPHIMURIUM, Strain/Indicator: TA100, Metabolic Activation: NONE, Method: PREINCUBATION

Nc1ncnc2c1ncn2[C@@H]1O[C@H](CO)[C@@H](O)[C@H]1O
mutagenic call (Test System: AMES SALMONELLA TYPHIMURIUM, Strain/Indicator: TA97, Metabolic Activation: NONE, Method: STANDARD PLATE): inactive; negative
mutagenic call (Test System: AMES SALMONELLA TYPHIMURIUM, Strain/Indicator: TA97, Metabolic Activation: RAT, LIVER, S-9, AROCLOR 1254, Method: STANDARD PLATE): inactive; negative
mutagenic call [1]: inactive; negative
mutagenic call [2]: inactive; negative
mutagenic call [3]: inactive; negative
mutagenic call [4]: inactive; negative
mutagenic call [5]: inactive; negative
mutagenic call [6]: inactive; negative
mutagenic call [7]: inactive; negative
mutagenic call [8]: inactive; negative
mutagenic call (Test System: CHINESE HAMSTER OVARY, Strain/Indicator: CHO-KL-BH4 (HGPRT), Metabolic Activation: NONE): inactive; negative
mutagenic call (Test System: CHINESE HAMSTER OVARY, Strain/Indicator: CHO-KL-BH4 (HGPRT), Metabolic Activation: RAT, LIVER, S-9, AROCLOR 1254): inactive; negative

CCC(C)[N+](=O)[O-] (configuration not stated)
mutagenic call [9]: inactive; negative
mutagenic call (Test System: AMES SALMONELLA TYPHIMURIUM, Strain/Indicator: TA100, Metabolic Activation: RAT, LIVER, S-9, AROCLOR, Method: PREINCUBATION): inactive; negative
mutagenic call (Test System: AMES SALMONELLA TYPHIMURIUM, Strain/Indicator: TA102, Metabolic Activation: NONE, Method: PREINCUBATION): inactive; negative
mutagenic call (Test System: AMES SALMONELLA TYPHIMURIUM, Strain/Indicator: TA102, Metabolic Activation: RAT, LIVER, S-9, AROCLOR, Method: PREINCUBATION): inactive; negative
mutagenic call (Test System: E. COLI, Strain/Indicator: WP2 UVRA (PKM101), Metabolic Activation: NONE, Method: PREINCUBATION): active; positive
mutagenic call (Test System: E. COLI, Strain/Indicator: WP2 UVRA (PKM101), Metabolic Activation: RAT, LIVER, S-9, KANECHLOR 1254, Method: PREINCUBATION): active; positive
mutagenic call (Test System: UDS RAT HEPATOCYTES, Strain/Indicator: THY INCORP, Metabolic Activation: NONE): active; positive

CN(C=O)N=O
mutagenic call [5]: active; positive
mutagenic call (Test System: E. COLI, Strain/Indicator: WU3610, Metabolic Activation: NONE, Method: SUSPENSION/PLATE): active; positive

Nc1ccc2cc(S(=O)(=O)O)cc(O)c2c1N=Nc1ccc([N+](=O)[O-])cc1S(=O)(=O)O
mutagenic call [1]: inactive; negative
mutagenic call (Test System: AMES SALMONELLA TYPHIMURIUM, Strain/Indicator: TA98, Metabolic Activation: RAT, LIVER, S-9, PHENOBARBITAL, Method: STANDARD PLATE): inactive; negative
mutagenic call [3]: inactive; negative
mutagenic call (Test System: AMES SALMONELLA TYPHIMURIUM, Strain/Indicator: TA100, Metabolic Activation: RAT, LIVER, S-9, PHENOBARBITAL, Method: STANDARD PLATE): inactive; negative

Clc1cccc(Cl)c1
mutagenic call (Test System: AMES SALMONELLA TYPHIMURIUM, Strain/Indicator: TA98, Metabolic Activation: HAMSTER, LIVER, S-9, AROCLOR 1254, Method: PREINCUBATION): inactive; negative
mutagenic call (Test System: AMES SALMONELLA TYPHIMURIUM, Strain/Indicator: TA98, Metabolic Activation: NONE, Method: PREINCUBATION): inactive; negative
mutagenic call [1]: inactive; negative
mutagenic call (Test System: AMES SALMONELLA TYPHIMURIUM, Strain/Indicator: TA98, Metabolic Activation: RAT, LIVER, S-9, AROCLOR 1254, Method: PREINCUBATION): inactive; negative
mutagenic call (Test System: AMES SALMONELLA TYPHIMURIUM, Strain/Indicator: TA98, Metabolic Activation: RAT, LIVER, S-9, AROCLOR, Method: STANDARD PLATE): inactive; negative
mutagenic call (Test System: AMES SALMONELLA TYPHIMURIUM, Strain/Indicator: TA100, Metabolic Activation: HAMSTER, LIVER, S-9, AROCLOR 1254, Method: PREINCUBATION): inactive; negative
mutagenic call [9]: inactive; negative
mutagenic call [3]: inactive; negative
mutagenic call (Test System: AMES SALMONELLA TYPHIMURIUM, Strain/Indicator: TA100, Metabolic Activation: RAT, LIVER, S-9, AROCLOR 1254, Method: PREINCUBATION): inactive; negative
mutagenic call (Test System: AMES SALMONELLA TYPHIMURIUM, Strain/Indicator: TA100, Metabolic Activation: RAT, LIVER, S-9, AROCLOR, Method: STANDARD PLATE): inactive; negative
mutagenic call (Test System: AMES SALMONELLA TYPHIMURIUM, Strain/Indicator: TA1535, Metabolic Activation: HAMSTER, LIVER, S-9, AROCLOR 1254, Method: PREINCUBATION): inactive; negative
mutagenic call (Test System: AMES SALMONELLA TYPHIMURIUM, Strain/Indicator: TA1535, Metabolic Activation: NONE, Method: PREINCUBATION): inactive; negative
mutagenic call (Test System: AMES SALMONELLA TYPHIMURIUM, Strain/Indicator: TA1535, Metabolic Activation: RAT, LIVER, S-9, AROCLOR 1254, Method: PREINCUBATION): inactive; negative
mutagenic call (Test System: AMES SALMONELLA TYPHIMURIUM, Strain/Indicator: TA1537, Metabolic Activation: HAMSTER, LIVER, S-9, AROCLOR 1254, Method: PREINCUBATION): inactive; negative
mutagenic call (Test System: AMES SALMONELLA TYPHIMURIUM, Strain/Indicator: TA1537, Metabolic Activation: NONE, Method: PREINCUBATION): inactive; negative
mutagenic call (Test System: AMES SALMONELLA TYPHIMURIUM, Strain/Indicator: TA1537, Metabolic Activation: RAT, LIVER, S-9, AROCLOR 1254, Method: PREINCUBATION): inactive; negative
mutagenic call (Test System: AMES SALMONELLA TYPHIMURIUM, Strain/Indicator: UTH8413, Metabolic Activation: NONE, Method: STANDARD PLATE): inactive; negative
mutagenic call (Test System: AMES SALMONELLA TYPHIMURIUM, Strain/Indicator: UTH8413, Metabolic Activation: RAT, LIVER, S-9, AROCLOR, Method: STANDARD PLATE): inactive; negative
mutagenic call (Test System: AMES SALMONELLA TYPHIMURIUM, Strain/Indicator: UTH8414, Metabolic Activation: NONE, Method: STANDARD PLATE): inactive; negative
mutagenic call (Test System: AMES SALMONELLA TYPHIMURIUM, Strain/Indicator: UTH8414, Metabolic Activation: RAT, LIVER, S-9, AROCLOR, Method: STANDARD PLATE): inactive; negative

Cc1nnc(NS(=O)(=O)c2ccc(N)cc2)s1
mutagenic call (Test System: AMES SALMONELLA TYPHIMURIUM, Strain/Indicator: TA98, Metabolic Activation: HAMSTER, LIVER, S-9, AROCLOR 1254, Method: STANDARD PLATE): inactive; negative
mutagenic call [1]: inactive; negative
mutagenic call [2]: inactive; negative
mutagenic call (Test System: AMES SALMONELLA TYPHIMURIUM, Strain/Indicator: TA100, Metabolic Activation: HAMSTER, LIVER, S-9, AROCLOR 1254, Method: STANDARD PLATE): inactive; negative
mutagenic call [3]: inactive; negative
mutagenic call [4]: inactive; negative
mutagenic call (Test System: AMES SALMONELLA TYPHIMURIUM, Strain/Indicator: TA1535, Metabolic Activation: HAMSTER, LIVER, S-9, AROCLOR 1254, Method: STANDARD PLATE): inactive; negative
mutagenic call [5]: inactive; negative
mutagenic call [6]: inactive; negative
mutagenic call (Test System: AMES SALMONELLA TYPHIMURIUM, Strain/Indicator: TA1537, Metabolic Activation: HAMSTER, LIVER, S-9, AROCLOR 1254, Method: STANDARD PLATE): inactive; negative
mutagenic call (Test System: AMES SALMONELLA TYPHIMURIUM, Strain/Indicator: TA1537, Metabolic Activation: NONE, Method: STANDARD PLATE): inactive; negative
mutagenic call (Test System: AMES SALMONELLA TYPHIMURIUM, Strain/Indicator: TA1537, Metabolic Activation: RAT, LIVER, S-9, AROCLOR 1254, Method: STANDARD PLATE): inactive; negative
mutagenic call (Test System: AMES SALMONELLA TYPHIMURIUM, Strain/Indicator: TA1538, Metabolic Activation: HAMSTER, LIVER, S-9, AROCLOR 1254, Method: STANDARD PLATE): inactive; negative
mutagenic call [7]: inactive; negative
mutagenic call [8]: inactive; negative
mutagenic call (Test System: MOUSE LYMPHOMA, Strain/Indicator: L5178Y (TK+/TK-), Metabolic Activation: NONE, Method: SUSPENSION/PLATE): inactive; negative. reevaluation of results: negative
mutagenic call (Test System: MOUSE LYMPHOMA, Strain/Indicator: L5178Y (TK+/TK-), Metabolic Activation: RAT, LIVER, S-9, AROCLOR 1254, Method: SUSPENSION/PLATE): inactive; negative. reevaluation of results: equivocal
